Measured values taken from paper PMC9386018, “A lymphatic-absorbed multi-targeted kinase inhibitor for myelofibrosis therapy” (Nature Communications, 2022).
Several values for one entry are separate records, joined by “and”; a condition that tells them apart may be missing. Equal values may be shown once.

Assays:
[1] = Rat mesenteric lymph duct cannulation model: lymphatic fluid and blood; type: in vivo; settings: anesthetized rats; for Lymphatic fluid Concentration (ng/mL or ng/g): individual animals
Procedure: A rat mesenteric lymph duct cannulation model was used to collect and quantify LP-182 in lymphatic fluid, blood, and lymphatic proteo-lipid sub-fractions similar to previously described methods[37],[40]. Male Sprague-Dawley rats (n = 7) were anesthetized by isoflurane (Piramel, PA) and placed on a heated pad maintained at 37 °C using a Kent Scientific (Torrington, CT) low flow vaporizer and SomnoSuite for pulse oximetry and thermal regulation, respectively. The carotid artery, mesenteric lymph duct and duodenum were cannulated, and normal saline was continuously infused into the duodenum at 1.7 mL h^−1 using a constant rate infusion pump. After approx. 0.5 h, 50 mg kg^−1 of LP-182 solubilized in ~1.7 mL of either Maisine CC or a mixture of 93% Maisine CC and 7% Labrasol (Gattefossé; Saint-Priest, France) was infused over 1 h into the duodenum, followed by normal saline (as above) for the duration of the experiment. Hourly fractions of lymphatic fluid were collected continually (rate of ~0.5–1.2 mL h^−1) for approx. 6 h, while arterial blood samples (10–20 µL) were collected once per hour and stored at −20 °C for future analysis. Lymphatic fluid time course samples were either frozen or pooled for subsequent fractionation by ultracentrifugation to isolate proteo-lipid sub-fractions similar to previously described methods. Separation of chylomicrons was achieved by layering lymphatic fluid under PBS (Gibco; ThermoFisher Scientific) in a polyallomer ultracentrifuge tube (Beckman, CA), and centrifugation in a L8-70M ultracentrifuge (Beckman, CA) at 202,048 x g using a SW40Ti rotor (Beckman, CA) for 95 min at 15 °C. Following centrifugation, the semi-solid chylomicron layer at the top of the centrifuge tube was recovered and stored at −20 °C for future analysis. After replacing the void volume with PBS, the bottom layer underwent further ultracentrifugation for an additional 16 h as above, at which time a viscous dispersion of VLDL was collected from the top of the tube, and an aqueous fraction containing LDL/HDL from the bottom, which were stored at −20 °C for future analysis. All lymphatic fluid, blood, and fractionated chylomicron, VLDL, and LDL/HDL samples were analyzed by mass spectrometry for quantitation of LP-182 as outlined below. Relative LP-182 in lymphatic fluid proteo-lipid sub-fractions was calculated as the amount of compound in a specified fraction as a percentage of the cumulative amount of compound measured in all fractions. […] Relative LP-182 in blood was calculated as the amount of compound measured in a specified temporal fraction of blood as a percentage of the amount of compound measured in an equal volume of the same temporal fraction of lymphatic fluid, with the average calculated from all fractions. Data was generated from n = 2 individual animals sampled per time point per study condition due to limitations in blood volume collection.
Standards and compound extraction from biological fluids or tissues was performed using similar protocols, all resulting in recoveries ≥90%. Briefly, acetonitrile was added to a final concentration of 60–80% to bone marrow, whole blood, plasma, lymphatic fluid, lymphatic proteo-lipid sub-fractions, or mesenteric lymph node samples for compound extraction. Extraction was performed by shaking and/or bead rupture using a Precellys Evolution tissue homogenizer (Bertin Technologies SAS). […] Optimization of MS and MS/MS parameters for MRM quantitation and maximum sensitivity of individual compounds was performed using SCIEX Analyst software (AB Sciex). […] All LC-MS/MS acquisitions were performed with an independent standard curve for each group of analytes and for each individual run. All solvents utilized were of Optima LC-MS Grade (Fisher Scientific). Data was generated from n ≥ 2 individual animals per compound per study condition or dose.

MEK1 = MEK1 (Homo sapiens, UniProt Q02750); test: Target kinase 10-point inhibition assay, MEK1; type: biochemical; settings: replicates
Text: The average percent kinase inhibition from replicate data was ranked low to high, converted to a compatible identifier format, then input into Coral Human Kinome Visualization software for presentation analysis. […] Scaling of evolutionary distance for PI kinases is only relative and is based on literature analysis[62],[63]. Average percent kinome inhibition values from replicate data are supplied in Source Data file. […] Corrected data was normalized to vehicle treated control values, and dose response percent kinase activity was analyzed by non-linear regression for determination of IC50 values.

[2] = 1 h intra-duodenal infusion 50 mg kg^−1, 6 h

Chain of MEK1 (Q02750 whole entry): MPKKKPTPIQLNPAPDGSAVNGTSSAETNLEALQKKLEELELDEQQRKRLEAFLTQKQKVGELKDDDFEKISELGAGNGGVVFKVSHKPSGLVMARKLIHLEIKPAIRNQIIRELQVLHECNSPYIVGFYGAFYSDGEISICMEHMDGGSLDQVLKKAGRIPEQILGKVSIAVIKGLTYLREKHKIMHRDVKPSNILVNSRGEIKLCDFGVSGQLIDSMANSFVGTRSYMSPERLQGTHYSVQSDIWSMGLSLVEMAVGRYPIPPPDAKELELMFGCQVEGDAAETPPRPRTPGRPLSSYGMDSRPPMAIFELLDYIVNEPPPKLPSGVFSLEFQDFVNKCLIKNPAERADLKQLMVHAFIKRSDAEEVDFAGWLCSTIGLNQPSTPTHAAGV

In the case of `O=C(NOCCOCCOCCOCCC(=O)N1CCN(c2cnc3ccc(-c4cnc(Cl)c(NS(=O)(=O)c5ccc(F)cc5)c4)cc3n2)CC1)c1ccc(F)c(F)c1Nc1ccc(I)cc1F` [LP-182, N-(2-(2-(2-(3-(4-(7-(6-chloro-5-((4-fluorophenyl)sulfonamido)pyridin-3-yl)quinoxalin-2-yl)piperazin-1-yl)-3-oxopropoxy)ethoxy)ethoxy)ethoxy)-3,4-difluoro-2-((2-fluoro-4-iodophenyl)amino)benzamide], the “Lymphatic fluid Concentration (ng/mL or ng/g)” value (from here on “Lymphatic fluid Concentration”) ([1]; 1 h intra-duodenal infusion 50 mg kg^−1, 0 h) is reported as 0 ng/mL or ng/g, the “Lymphatic fluid Concentration” value ([1]; 1 h intra-duodenal infusion 50 mg kg^−1, 1 h) is reported as 1075.78 ng/mL or ng/g and 810.78 ng/mL or ng/g and 1128.99 ng/mL or ng/g and 810.9 ng/mL or ng/g and 526.14 ng/mL or ng/g and 195.59 ng/mL or ng/g and 1185.4 ng/mL or ng/g and the “Lymphatic fluid Concentration” value ([1]; 1 h intra-duodenal infusion 50 mg kg^−1, 2 h) is reported as 15938.1 ng/mL or ng/g and 4987.49 ng/mL or ng/g and 11915.5 ng/mL or ng/g and 8277.36 ng/mL or ng/g and 1691.13 ng/mL or ng/g and 3232.84 ng/mL or ng/g and 9168 ng/mL or ng/g. For the same compound, the “Lymphatic fluid Concentration” value ([1]; 1 h intra-duodenal infusion 50 mg kg^−1, 3 h) was 11950.5 ng/mL or ng/g and 2555.63 ng/mL or ng/g and 6787.62 ng/mL or ng/g and 11961.6 ng/mL or ng/g and 3014.24 ng/mL or ng/g and 1175.13 ng/mL or ng/g and 13326 ng/mL or ng/g, the “Lymphatic fluid Concentration” value ([1]; 1 h intra-duodenal infusion 50 mg kg^−1, 4 h) was 4407.66 ng/mL or ng/g and 5844.35 ng/mL or ng/g and 3822.74 ng/mL or ng/g and 8176.6 ng/mL or ng/g and 1916.83 ng/mL or ng/g and 592.35 ng/mL or ng/g and 6976.86 ng/mL or ng/g and the “Lymphatic fluid Concentration” value ([1]; 1 h intra-duodenal infusion 50 mg kg^−1, 5 h) was 4529.02 ng/mL or ng/g and 3482.33 ng/mL or ng/g and 3674.05 ng/mL or ng/g and 7088.41 ng/mL or ng/g and 2106.37 ng/mL or ng/g and 169.31 ng/mL or ng/g and 7019.83 ng/mL or ng/g. The “level in blood as % of total compound measured among each set of temporal fractions” value [1, 2] was 1.7%, the “Lymphatic fluid Concentration” value [1, 2] was 2432.36 ng/mL or ng/g and 2631.07 ng/mL or ng/g and 1756.69 ng/mL or ng/g and 8133.27 ng/mL or ng/g and 2059.99 ng/mL or ng/g and 330.98 ng/mL or ng/g and 2839 ng/mL or ng/g and the activity at 0.000495 µM (MEK1; MEK1, 0.495 nM) was 91%. For the same compound, the “Kinase Activity (%)” value (MEK1; MEK1, 0.495 nM, 0.000495 µM) was 94% and 100% (2×) and 98% (2×) and 87%, the activity at 0.00152 µM (MEK1; MEK1, 1.52 nM) was 89% and the “Kinase Activity (%)” value (MEK1; MEK1, 1.52 nM, 0.00152 µM) was 94% (2×) and 102% (2×). The activity at 0.00457 µM (MEK1; MEK1, 4.57 nM) was 92%, the “Kinase Activity (%)” value (MEK1; MEK1, 4.57 nM, 0.00457 µM) was 77% and 86% and 84% and 81% and the “Kinase Activity (%)” value (MEK1; MEK1, 41.2 nM, 0.0412 µM) was 47% and 49% and 69% and 72% and 79% and 86% and 76% and 73%. The “Kinase Activity (%)” value (MEK1; MEK1, 123 nM, 0.123 µM) was 26% and 22% and 46% and 50% and 53% and 57% and 54% and 49%, the “Kinase Activity (%)” value (MEK1; MEK1, 1110 nM, 1.11 µM) was 0% and 3% (3×) and 8% (2×) and 9% (2×) and 5% and 12% and the “Kinase Activity (%)” value (MEK1; MEK1, 3330 nM, 3.33 µM) was -1% and 1% (2×) and 2% (2×) and 3% (3×) and 4% and 0%. The “Kinase Activity (%)” value (MEK1; MEK1, 10000 nM, 10 µM) was 0% and -2% (2×) and 8% and 9% and 4% and 2% and -1% and 3% (2×), the activity at 0.000495 µM (MEK1; MEK1, concentration 0.495 nM) was 90% and the “Kinase Activity (%)” value (MEK1; MEK1, concentration 0.495 nM, 0.000495 µM) was 100% (2×) and 98% (2×). The activity at 0.00152 µM (MEK1; MEK1, concentration 1.52 nM) was 99%, the “Kinase Activity (%)” value (MEK1; MEK1, concentration 1.52 nM, 0.00152 µM) was 94% (2×) and 102% (2×) and the activity at 0.00457 µM (MEK1; MEK1, concentration 4.57 nM) was 95%. It also gave an activity at 0.0412 µM (MEK1; MEK1, concentration 41.2 nM) of 65%, an activity at 0.123 µM (MEK1; MEK1, concentration 123 nM) of 43% and an activity at […] (MEK1; MEK1, concentration 370 nM) of 15%. For the same compound, the “Kinase Activity (%)” value (MEK1; MEK1, concentration 1110 nM, 1.11 µM) was 9% (2×) and 3% (3×) and 8% (2×), the “Kinase Activity (%)” value (MEK1; MEK1, concentration 3330 nM, 3.33 µM) was 2% (2×) and 1% (2×) and 3% (3×) and the “Kinase Activity (%)” value (MEK1; MEK1, concentration 10000 nM, 10 µM) was 3% (2×) and -2% (2×).
